These results are taken from patent US20230146675A1, “PYRIMIDO[5,4-d]PYRIMIDINE DERIVATIVES AS ENT INHIBITORS FOR THE TREATMENT OF CANCERS, AND COMBINATION THEREOF WITH ADENOSINE RECEPTOR ANTAGONISTS” (ITEOS BELGIUM SA, priority 2020, published 2023).

The target of one assay is T1, human ENT1 (Homo sapiens, UniProt Q99808).
T1 sequence (Q99808 1-456): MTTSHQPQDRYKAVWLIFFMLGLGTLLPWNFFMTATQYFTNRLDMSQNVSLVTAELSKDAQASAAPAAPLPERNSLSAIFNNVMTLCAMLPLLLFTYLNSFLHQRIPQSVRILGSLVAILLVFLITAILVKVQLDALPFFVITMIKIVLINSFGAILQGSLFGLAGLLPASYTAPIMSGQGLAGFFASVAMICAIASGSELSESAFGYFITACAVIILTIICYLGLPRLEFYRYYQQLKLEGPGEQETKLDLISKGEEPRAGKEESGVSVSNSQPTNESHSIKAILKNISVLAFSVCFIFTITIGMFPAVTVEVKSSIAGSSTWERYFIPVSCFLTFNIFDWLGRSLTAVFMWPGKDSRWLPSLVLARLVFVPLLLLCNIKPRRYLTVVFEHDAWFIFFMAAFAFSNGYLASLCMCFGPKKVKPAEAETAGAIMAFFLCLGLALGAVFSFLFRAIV
The experiment in a line: Uridine transport inhibition assay (3H-uridine uptake, MDCKII-ENT1-LV cells). Type of assay: cell-based. Conditions: 3H-uridine (1 μM), 1 min at 25° C. The text has this:
Purpose. The aim of this study was to determine the potency of equilibrative nucleoside transporter 1 (ENT1) inhibitors by measuring ENT1-mediated transport is the cellular uptake assay. The human ENT1 transporter can be stably expressed in Madin-Darby Canine Kidney II (MDCKII) cells via transduction. Uridine is efficiently transported by ENT1 and is used as probe in the assay as 3H-uridine. The interaction is detected as the modulation of the initial rate of 3H-uridine transport by human ENT1 into MDCKII-ENT1-LV cells stably expressing ENT1 uptake transporter.

Assay [1] concerns the target T2, Human phosphodiesterase-1B (Homo sapiens, UniProt Q01064).
T2 construct: host or cells: Sf9 cells
The experiment in a line: PDE1B (h) assay. The class given is biochemical. The method, then: Method. • Human phosphodiesterase-1B quantified by measuring the formation of 5′GMP from cGMP using a human recombinant enzyme expressed in Sf9 cells
The test compound (compound 72), reference compound or water (control) were added to a buffer containing 40 mM Tris/HCl (pH 7.4), 8 mM MgCl2 0.21% BSA, 0.5 μg/ml calmoduline and 0.5 mM CaCl2), 1.125 μM cGMP and 0.027 μCi [3H]cGMP. Thereafter, the reaction was initiated by addition of the enzyme (about 0.2 U) and the mixture was incubated for 20 min at 22° C. For basal control measurements, the enzyme was omitted from the reaction mixture. Following incubation SPA beads were added. After 30 min at 22° C. under shaking, the amount of [3H]5′GMP was quantified with a scintillation counter (MicroBeta, Perkin Elmer). The results were expressed as a percent inhibition of the control enzyme activity. The standard inhibitory reference compound was Nitrendipine, which was tested in each experiment at several concentrations to obtain an inhibition curve from which its IC50 value was calculated. • Human phosphodiesterase-5 quantified by measuring the formation of 5′GMP from cGMP using an enzyme isolated from human platelets at Eurofins-Cerep.

Assay [2] addresses T3, Human phosphodiesterase-4B1 (Homo sapiens, UniProt Q07343).
T3 construct: host or cells: Sf9 cells
The experiment in a line: PDE4B1 (h) assay. Type of assay: biochemical. As to the method:
(§1) The test compound (compound 72), reference compound or water (control) were added to a buffer containing 40 mM Tris/HCl (pH 7.4) and 8 mM MgCl2, 450 nM cAMP and 0.25 μCi [3H]cAMP. Thereafter, the reaction was initiated by addition of the enzyme (about 10 U) and the mixture was incubated for 20 min at 22° C. For basal control measurements, the enzyme was omitted from the reaction mixture. Following incubation SPA beads were added. After 30 min at 22° C. under shaking, the amount of [3H]5′AMP was quantified with a scintillation counter (MicroBeta, Perkin Elmer). The results were expressed as a percent inhibition of the control enzyme activity. The standard inhibitory reference compound was Ro 20-1724, which was tested in each experiment at several concentrations to obtain an inhibition curve from which its IC50 value was calculated. • Human phosphodiesterase-4B1 quantified by measuring the formation of 5′AMP from cAMP using a human recombinant enzyme expressed in Sf9 cells.
The test compound (compound 72), reference compound or water (control) were added to a buffer containing 40 mM Tris/HCl (pH 7.4), 8 mM MgCl2 and 1.7 mM EGTA/NaOH, 450 nM cAMP and 0.25 μCi [3H]cAMP. […] After 30 min at 22° C. under shaking, the amount of [3H]5′AMP was quantified with a scintillation counter (MicroBeta, Perkin Elmer). The results were expressed as a percent inhibition of the control enzyme activity. […]

In assay [3] the target is T4, Human phosphodiesterase-8A1 (Homo sapiens, UniProt O60658).
T4 construct: host or cells: Sf9 cells
The experiment in a line: PDE8A1 (h) assay. Type of assay: biochemical. The method, then:
as §1, with “63” for “450”, “0.035” for “0.25”, “0.6” for “10”, “BRL50481,” for “Ro 20-1724,”, “phosphodiesterase-8A1” for “phosphodiesterase-4B1”, “cells” for “cells.”
The test compound (compound 72), reference compound or water (control) were added to a buffer containing 40 mM Tris/HCl (pH 7.4) and 8 mM MgCl2, 180 nM cAMP and 0.1 μCi [3H]cAMP. […] After 30 min at 22° C. under shaking, the amount of [3H]5′AMP was quantified with a scintillation counter (MicroBeta, Perkin Elmer). The results were expressed as a percent inhibition of the control enzyme activity. […]

T4 sequence (O60658 whole entry): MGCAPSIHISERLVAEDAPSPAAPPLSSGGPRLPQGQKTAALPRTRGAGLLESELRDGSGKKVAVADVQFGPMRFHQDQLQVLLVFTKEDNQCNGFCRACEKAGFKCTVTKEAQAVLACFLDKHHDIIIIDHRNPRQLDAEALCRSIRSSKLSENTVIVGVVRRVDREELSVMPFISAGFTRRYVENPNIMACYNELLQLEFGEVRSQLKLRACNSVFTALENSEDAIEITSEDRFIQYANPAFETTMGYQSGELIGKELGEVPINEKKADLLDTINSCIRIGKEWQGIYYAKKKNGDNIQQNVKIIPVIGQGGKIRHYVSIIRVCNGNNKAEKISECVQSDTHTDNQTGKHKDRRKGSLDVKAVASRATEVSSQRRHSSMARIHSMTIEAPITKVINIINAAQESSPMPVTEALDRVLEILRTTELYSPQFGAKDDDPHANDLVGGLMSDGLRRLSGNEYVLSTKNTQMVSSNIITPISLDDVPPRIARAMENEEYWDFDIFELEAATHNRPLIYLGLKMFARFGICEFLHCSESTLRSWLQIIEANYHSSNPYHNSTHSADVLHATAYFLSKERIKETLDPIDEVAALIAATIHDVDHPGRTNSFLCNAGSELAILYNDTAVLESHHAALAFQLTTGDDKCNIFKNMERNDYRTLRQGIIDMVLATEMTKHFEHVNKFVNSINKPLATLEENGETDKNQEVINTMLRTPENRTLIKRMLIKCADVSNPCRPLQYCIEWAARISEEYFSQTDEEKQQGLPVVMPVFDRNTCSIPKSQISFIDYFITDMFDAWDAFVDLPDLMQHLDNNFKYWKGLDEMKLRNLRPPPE
T3 sequence (Q07343 whole entry): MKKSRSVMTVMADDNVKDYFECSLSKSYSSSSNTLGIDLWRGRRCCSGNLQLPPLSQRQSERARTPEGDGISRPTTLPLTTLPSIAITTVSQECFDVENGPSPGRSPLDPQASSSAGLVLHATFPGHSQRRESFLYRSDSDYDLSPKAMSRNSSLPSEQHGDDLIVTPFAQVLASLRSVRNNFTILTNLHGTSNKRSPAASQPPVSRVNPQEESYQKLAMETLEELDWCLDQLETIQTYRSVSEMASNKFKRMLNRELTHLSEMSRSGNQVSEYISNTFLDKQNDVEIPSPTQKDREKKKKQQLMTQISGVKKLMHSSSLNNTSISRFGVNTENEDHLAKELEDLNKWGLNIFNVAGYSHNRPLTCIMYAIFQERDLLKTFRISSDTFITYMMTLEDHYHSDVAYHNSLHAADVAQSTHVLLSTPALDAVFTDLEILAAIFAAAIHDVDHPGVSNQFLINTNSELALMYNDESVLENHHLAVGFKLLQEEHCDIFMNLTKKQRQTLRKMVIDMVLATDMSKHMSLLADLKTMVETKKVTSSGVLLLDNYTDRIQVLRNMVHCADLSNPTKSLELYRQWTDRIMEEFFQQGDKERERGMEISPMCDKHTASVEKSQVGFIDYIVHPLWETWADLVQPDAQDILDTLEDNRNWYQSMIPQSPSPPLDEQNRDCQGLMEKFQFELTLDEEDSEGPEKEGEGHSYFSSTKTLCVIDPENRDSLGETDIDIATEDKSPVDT

For the molecule `COCCN(CCOC)c1nc(N2CCN(C)C(=O)C2)c2nc(N(CCOC)CCOC)nc(N3CCC(OC)CC3)c2n1` [Compound 72, 4-(2,6-bis(bis(2-methoxyethyl)amino)-8-(4-methoxypiperidin-1-yl)pyrimido[5,4-d]pyrimidin-4-yl)-1-methylpiperazin-2-one], the IC50 at human ENT1 is under 100 nM; in assay [1], over 10 µM; in assay [2], 1 to 10 µM; in assay [3], over 10 µM.
